In patent US6458781B1, “Substituted diarylalkyl amides as calcium channel antagonists” (priority 1998, dated 2002) one finds IC50 and inhibition data, which are given here for 17 molecules.

Where a name gives a salt, the structure may show the parent alone.

The target of assay [1] is T1, L-type calcium channels in A10 cells (Rattus norvegicus, UniProt P22002).
T1 construct: which endogenously expresses L-type calcium channels; host or cells: A10 rat embryonic thoracic aorta smooth muscle cells
The assay is described as follows: L-type Ca2+ channel blocking potency in A10 cells (FLIPR). The settings on record: read-out: FLPA10 IC50. Format: cell-based. The protocol:
Measurement of L-type Ca^2+ Channel Blocking Potencies of Compounds in A10 Cells
Calcium flux through voltage-sensitive calcium channels was assessed by time-resolved monitoring of the fluorescence of pre-loaded calcium-sensitive dyes using FLIPR, a fluorescent image plate reader (Molecular Devices Co.). The A10 smooth muscle cell line derived from embryonic thoracic aorta of the DBIX rat (ATCC, CRL-1476) which endogenously expresses L-type calcium channels. The growth media for A10 cells was Ham's F12/DME high glucose (Irvine Scientific, 9052), supplemented with 20% fetal bovine serum (HyClone Labs, A-1115-L), and 1% each of L-glutamine and antibiotic-antimycotic (same source as above).
Cells were grown to confluency and replated on black-sided 96-well plates (Costar, 3603) for use in FLIPR. Two days after replating, growth media was removed and cells were loaded at 37° C. with 100 μL media containing 1 μM Oregon Green 488 Bapta-1 dye (Molecular Probes, O-6807) for 1 to 3 hours. The dye-containing media was then washed away with buffer (composition in mM: 1.25 CaCl2, 1.2 MgSO4, 11 glucose, 10 HEPES, 3.0 KCl, 137.0 NaCl, pH 7.4 with Tris base) in a Denley Cellwash (Labsystems, CW018B). The residual buffer volume was adjusted to 50 μL. A 5 minute drug-pre-incubation period at 35° C. was initiated when 50 μL of drug-containing buffer was pipetted into the cell plate with the 96-well pipettor integrated in the FLIPR apparatus. Fluorescent counts were monitored at 20 second intervals for 360 seconds, beginning 60 seconds prior to the delivery of drug-containing buffer. Following drug addition, 100 μL aliquots of a high K^+, depolarizing stimulus (composition in mM: 1.25 CaCl2, 1.2 MgSO4, 11 glucose, 10 HEPES, 140.0 KCl, pH 7.4 with Tris base) were added to each well, and fluorescence was monitored at 1 second intervals for 120 seconds beginning 10 seconds prior to the stimulus addition. CCD camera exposure time was 0.4 seconds, laser excitation was at 488 nm with a power of 0.2-0.5W, and a 510 to 560 nm bandpass interference filter preceded the camera.
Data was analyzed as a summation of fluorescent counts above basal during the stimulation period (an approximation of area under the curve), after normalizing the data with a spatial uniformity correction (for variations in laser illumination and cell density) and a negative control correction (zero calcium increase defined as the fluorescence reading in the presence of saturating pharmacologic block of the respective calcium channel). Drug effects were expressed as percent inhibition of fluorescence from an average of 8 K^+-stimulated wells which were pre-treated in the drug incubation period with buffer only. In the A10 cells, the pharmacologic agent used to define zero calcium influx was nitrendipine (RBI, N-144) at a final concentration of 1.0×10^−6 M.

Assay [2] concerns the target T2, N-type calcium channels in IMR-32 cells (Homo sapiens, UniProt Q00975).
T2 construct: host or cells: IMR-32 cells differentiated with dibutyryl cAMP and bromodeoxyuridine
The assay is described as follows: N-type Ca2+ channel blocking potency in IMR-32 cells using Indo-1. Format: cell-based. Conditions: for IC50: IMR-32 cells, estimated from two data points, read-out: IMR32 IC50 (estimated IC50 values based on two data points); for inhibition at 1 µM / inhibition at 10 µM: IMR-32, IMR-32 cells; for inhibition at 1 µM: read-out: IMR32 % blockage at 1 μM; for inhibition at 10 µM: read-out: IMR32 % blockage at 10 μM. The protocol:
Measurement of N-type Ca^2+ Channel Blocking Potencies of Compounds in IMR-32 Cells Using the Fluorescent Ca^2+ Indicator Indo-1
IMR-32 cells are a human tumoral cell line of neural origin. […] Calcium flux into these cells may be induced by stimulation with elevated potassium concentrations. The L-channel component of calcium flux may be blocked by adding 5 μM nitrendipine. The remaining component of calcium entry into the IMR-32 cells is due to calcium flux through N-type calcium channels. Intracellular calcium concentrations are measured using the fluorescent calcium indicator Indo-1. The effect of drug concentration on calcium uptake is studied.
The IMR-32 cell line was obtained from the American Type Culture Collection (Rockville, Md.). Cells were grown in Eagle's Minimum Essential Medium with Earle's salts supplemented with 10% fetal bovine serum, 2 mM L-Gln and antibiotic/antimycotic mixture (Gibco). At approximately 80% confluency, differentiation was induced by the addition of 1 mM dibutyryl cAMP and 2.5 μM bromodeoxyuridine to the medium. After 7 to 13 days of differentiation, cells were detached using 0.5 mM EDTA and loaded with 5 μM Indo-1 acetoxymethyl ester (Molecular Probes, Eugene, Oreg.) at 30° C. for 45 minutes. Loaded cells were washed twice, resuspended (˜10^7 cells/mL) in assay buffer (10 mM HEPES/Tris pH 7.4 in Hank's Balanced Salt Solution without bicarbonate or phenol red containing 0.5% bovine serum albumin) and kept on ice until use. Fluorescence measurements were carried out in a Photon Technology International (PTI, South Brunswick, N.J.) Model RF-F3004 spectrofluorometer with dual emission monochromators using excitation at 350 nm and emission at 400 and 490 nm. The instrument was equipped with a thermostated cuvette holder with stirring capabilities as well as with a computer-controlled pump which allowed for reagent addition during measurement. Instrument control and data collection was done by PTI's OSCAR software running on an IBM compatible computer. Different concentrations of the test compounds (60 μL in dimethyl sulfoxide) were added to 5.94 mL of assay buffer containing approximately 3×10^6 loaded cells, and 5 μM Nitrendipine (in 30 μL EtOH) to block L-type Ca^2+ channels. Samples were incubated for 10 minutes at 30° C. and the aliquot into three 10×10 mm disposable acrylic cuvettes. Emission signals at 400 and 490 nm were acquired from each cuvette at 30° C. for 50 seconds. At 20 seconds after the start of reading, cells were depolarized by the addition of 160 μL of stimulation solution (1 M KCl, 68 mM CaCl2) to the cuvette via the computer-controlled pump. Ratio of dual emission signals (400/490 nm), which is proportional to intracellular Ca^2+ concentration, was plotted against time, and the difference between maximal response after stimulation and basal value (before stimulation) was determined. Values obtained in this way were plotted as a function of drug concentration. IC50 values of test compounds were calculated by fitting a four-parameter logistic function to the data using the least squares method.

T2 sequence (Q00975 whole entry): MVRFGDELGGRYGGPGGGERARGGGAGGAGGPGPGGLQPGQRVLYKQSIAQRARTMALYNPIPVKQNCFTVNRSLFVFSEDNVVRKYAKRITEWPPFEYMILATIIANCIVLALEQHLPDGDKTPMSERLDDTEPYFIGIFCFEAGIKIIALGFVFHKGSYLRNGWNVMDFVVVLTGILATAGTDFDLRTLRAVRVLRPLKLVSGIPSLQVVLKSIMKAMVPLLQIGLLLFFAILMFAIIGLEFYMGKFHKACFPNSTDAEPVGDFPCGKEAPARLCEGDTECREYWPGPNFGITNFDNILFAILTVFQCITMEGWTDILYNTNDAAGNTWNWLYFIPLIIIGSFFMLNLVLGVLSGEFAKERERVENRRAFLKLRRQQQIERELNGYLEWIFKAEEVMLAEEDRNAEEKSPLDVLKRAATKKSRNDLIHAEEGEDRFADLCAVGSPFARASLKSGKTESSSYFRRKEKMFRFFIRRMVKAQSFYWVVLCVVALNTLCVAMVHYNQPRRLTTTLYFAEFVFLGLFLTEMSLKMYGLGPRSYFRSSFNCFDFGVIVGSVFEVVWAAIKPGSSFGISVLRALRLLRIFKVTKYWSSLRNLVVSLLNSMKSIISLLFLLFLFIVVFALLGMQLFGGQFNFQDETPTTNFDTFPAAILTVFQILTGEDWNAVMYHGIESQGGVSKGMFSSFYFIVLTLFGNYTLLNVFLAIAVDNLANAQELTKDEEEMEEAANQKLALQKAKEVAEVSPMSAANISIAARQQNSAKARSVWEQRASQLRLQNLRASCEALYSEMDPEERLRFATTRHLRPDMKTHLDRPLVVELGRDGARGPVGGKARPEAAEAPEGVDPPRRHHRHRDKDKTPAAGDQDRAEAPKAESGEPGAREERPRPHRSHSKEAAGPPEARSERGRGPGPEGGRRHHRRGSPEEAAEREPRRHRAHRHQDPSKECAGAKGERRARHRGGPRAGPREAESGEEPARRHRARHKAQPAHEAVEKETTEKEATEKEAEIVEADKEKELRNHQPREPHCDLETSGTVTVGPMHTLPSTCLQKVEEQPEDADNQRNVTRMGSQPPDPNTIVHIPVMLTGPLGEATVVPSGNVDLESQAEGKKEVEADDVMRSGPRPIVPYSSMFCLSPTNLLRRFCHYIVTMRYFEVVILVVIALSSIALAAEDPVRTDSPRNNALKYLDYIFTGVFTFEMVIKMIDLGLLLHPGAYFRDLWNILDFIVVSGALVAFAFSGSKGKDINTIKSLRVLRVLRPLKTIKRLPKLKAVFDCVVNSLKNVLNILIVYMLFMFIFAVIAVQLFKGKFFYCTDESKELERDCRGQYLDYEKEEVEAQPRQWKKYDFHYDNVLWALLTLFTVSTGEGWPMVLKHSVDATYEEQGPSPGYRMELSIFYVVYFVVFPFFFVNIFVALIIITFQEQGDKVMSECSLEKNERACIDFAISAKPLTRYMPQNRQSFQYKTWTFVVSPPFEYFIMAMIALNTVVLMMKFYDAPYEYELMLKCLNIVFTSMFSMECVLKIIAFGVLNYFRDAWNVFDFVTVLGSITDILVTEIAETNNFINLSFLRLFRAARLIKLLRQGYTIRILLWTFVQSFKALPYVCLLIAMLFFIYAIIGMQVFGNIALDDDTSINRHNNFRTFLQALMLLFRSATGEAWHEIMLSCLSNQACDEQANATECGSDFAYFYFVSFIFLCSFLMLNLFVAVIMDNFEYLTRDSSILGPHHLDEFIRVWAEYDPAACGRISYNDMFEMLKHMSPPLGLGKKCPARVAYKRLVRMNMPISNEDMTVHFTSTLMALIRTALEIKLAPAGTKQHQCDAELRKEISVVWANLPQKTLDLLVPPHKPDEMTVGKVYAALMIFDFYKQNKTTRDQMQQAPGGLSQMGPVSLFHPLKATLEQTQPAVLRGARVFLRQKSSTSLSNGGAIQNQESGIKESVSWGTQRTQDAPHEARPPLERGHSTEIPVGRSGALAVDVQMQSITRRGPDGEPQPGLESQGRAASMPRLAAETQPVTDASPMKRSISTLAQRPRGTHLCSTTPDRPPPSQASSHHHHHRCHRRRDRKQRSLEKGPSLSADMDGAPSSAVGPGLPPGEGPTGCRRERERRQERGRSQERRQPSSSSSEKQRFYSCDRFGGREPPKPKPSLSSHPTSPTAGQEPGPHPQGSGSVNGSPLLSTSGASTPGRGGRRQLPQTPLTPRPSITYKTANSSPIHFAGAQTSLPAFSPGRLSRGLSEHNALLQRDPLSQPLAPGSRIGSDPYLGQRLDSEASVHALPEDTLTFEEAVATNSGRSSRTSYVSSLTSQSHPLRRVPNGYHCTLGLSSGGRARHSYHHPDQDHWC
T2 sequence (P54289 25-956 partner limits assumed): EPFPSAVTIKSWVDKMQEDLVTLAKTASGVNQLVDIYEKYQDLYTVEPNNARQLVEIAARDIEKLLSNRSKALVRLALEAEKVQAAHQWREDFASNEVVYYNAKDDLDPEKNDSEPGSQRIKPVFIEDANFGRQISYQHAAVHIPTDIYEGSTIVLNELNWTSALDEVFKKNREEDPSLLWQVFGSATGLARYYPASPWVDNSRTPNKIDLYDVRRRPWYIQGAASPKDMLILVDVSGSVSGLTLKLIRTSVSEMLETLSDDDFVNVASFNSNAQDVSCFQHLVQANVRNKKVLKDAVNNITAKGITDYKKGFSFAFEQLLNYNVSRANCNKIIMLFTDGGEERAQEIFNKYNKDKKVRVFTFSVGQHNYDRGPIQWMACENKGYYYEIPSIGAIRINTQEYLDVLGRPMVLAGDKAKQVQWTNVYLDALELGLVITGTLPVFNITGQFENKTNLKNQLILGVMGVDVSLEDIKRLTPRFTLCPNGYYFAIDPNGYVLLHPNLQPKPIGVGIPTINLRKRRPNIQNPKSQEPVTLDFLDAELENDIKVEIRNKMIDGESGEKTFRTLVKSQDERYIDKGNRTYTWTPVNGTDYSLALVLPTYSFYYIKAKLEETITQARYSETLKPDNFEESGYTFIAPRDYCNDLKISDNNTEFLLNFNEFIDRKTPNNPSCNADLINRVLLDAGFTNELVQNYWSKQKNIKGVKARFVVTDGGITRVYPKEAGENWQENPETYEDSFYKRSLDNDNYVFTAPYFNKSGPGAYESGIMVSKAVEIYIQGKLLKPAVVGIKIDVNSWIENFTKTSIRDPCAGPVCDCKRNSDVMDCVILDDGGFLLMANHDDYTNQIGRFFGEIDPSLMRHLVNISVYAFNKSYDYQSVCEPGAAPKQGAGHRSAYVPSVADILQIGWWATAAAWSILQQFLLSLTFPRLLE
T2 sequence (P54289 957-1103 partner limits assumed): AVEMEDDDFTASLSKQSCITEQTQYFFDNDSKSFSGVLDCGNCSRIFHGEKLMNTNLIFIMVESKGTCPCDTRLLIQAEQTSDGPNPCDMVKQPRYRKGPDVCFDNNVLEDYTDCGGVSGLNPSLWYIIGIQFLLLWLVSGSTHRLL
T2 sequence (Q02641 whole entry partner): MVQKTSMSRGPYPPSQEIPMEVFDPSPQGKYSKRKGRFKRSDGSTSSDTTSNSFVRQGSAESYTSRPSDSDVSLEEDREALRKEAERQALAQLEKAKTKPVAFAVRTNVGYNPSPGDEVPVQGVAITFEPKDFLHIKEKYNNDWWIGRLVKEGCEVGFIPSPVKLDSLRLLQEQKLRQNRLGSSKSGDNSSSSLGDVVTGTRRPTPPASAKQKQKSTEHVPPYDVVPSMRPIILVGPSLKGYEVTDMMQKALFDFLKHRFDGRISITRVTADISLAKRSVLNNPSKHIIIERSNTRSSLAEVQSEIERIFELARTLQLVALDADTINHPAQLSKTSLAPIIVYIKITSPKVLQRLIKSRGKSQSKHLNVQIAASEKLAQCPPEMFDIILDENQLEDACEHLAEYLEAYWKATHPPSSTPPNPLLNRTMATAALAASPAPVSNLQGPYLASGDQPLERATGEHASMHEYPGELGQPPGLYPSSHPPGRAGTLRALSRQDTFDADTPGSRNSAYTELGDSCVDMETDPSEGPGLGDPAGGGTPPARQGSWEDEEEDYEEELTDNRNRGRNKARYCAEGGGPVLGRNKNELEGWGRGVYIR

A word on the IC50: it is the concentration that inhibits the measured activity by half. Take `CC(C)C[C@@H](NC(=O)N1CCCCCC1)C(=O)NCCCC(c1ccc(F)cc1)c1ccc(F)cc1` [Example 2, (R)-Azepane-1-carboxylic acid {1-[4,4-bis-(4-fluoro-phenyl)-butylcarbamoyl]-3-methyl-butyl}-amide]: the IC50 in assay [1] turned out to be 0.29 µM.

As to `CC(C)C[C@H](NC1CCOCC1)C(=O)NCCCC(c1ccc(F)cc1)c1ccc(F)cc1` [Example 18, (S)-4-Methyl-2-(tetrahydro-pyran-4-ylamino)-pentanoic acid [4,4-bis-(4-fluoro-phenyl)-butyl]-amide], the IC50 was 2 µM in assay [2] and 0.57 µM in assay [1].

Turning to `CC(C)C[C@H](NC(C)C)C(=O)NCCCC(c1ccc(F)cc1)c1ccc(F)cc1` [Example 19, (S)-2-Isopropylamino-4-methyl-pentanoic acid [4,4-bis-(4-fluoro-phenyl)-butyl]-amide monohydrochloride], the values for the IC50 in assay [2] and in assay [1] were 1.1 µM and 0.66 µM, respectively.

Turning to `CC(C)C[C@@H](C(=O)NCCCC(c1ccc(F)cc1)c1ccc(F)cc1)N(C)C` [Example 20, (S)-2-Dimethylamino-4-methyl-pentanoic acid [4,4-bis-(4-fluoro-phenyl)-butyl]-amide monohydrochloride], in assay [2], the inhibition at 1 µM was 25% and the inhibition at 10 µM turned out to be 92%. In addition, the IC50 in assay [1] was 0.47 µM.

Take `CC(C)C[C@@H](C(=O)NCCCC(c1ccc(F)cc1)c1ccc(F)cc1)N(C)C1CCCCC1` [Example 21, (S)-2-(Cyclohexyl-methyl-amino)-4-methyl-pentanoic acid [4,4-bis-(4-fluoro-phenyl)-butyl]-amide monohydrochloride]: in assay [2], the inhibition at 1 µM came out at 71% and the inhibition at 10 µM turned out to be 94%. For the same molecule, in assay [1], the IC50 turned out to be 0.27 µM.

`CC(C)C[C@@H](C(=O)NCCCC(c1ccc(F)cc1)c1ccc(F)cc1)N1CCOCC1` [Example 23, (S)-4-Methyl-2-morpholin-4-yl-pentanoic acid [4,4-bis-(4-fluoro-phenyl)-butyl]-amide monohydrochloride]: in assay [2], the inhibition at 1 µM came to 35% and the inhibition at 10 µM came to 89%. Further, the IC50 in assay [1] was determined as 0.13 µM.

As for `CC(C)C[C@@H](C(=O)NCCC(c1ccccc1)c1ccccc1)N(C)C1CCCCC1` [Example 25, (S)-2-(Cyclohexyl-methyl-amino)-4-methyl-pentanoic acid (3,3-diphenyl-propyl)-amide monohydrochloride], the values for the IC50 in assay [2] and in assay [1] were 0.99 µM and 0.8 µM, respectively.

For the molecule `CC(C)C[C@@H](C(=O)NCCCC(c1ccc(F)cc1)c1ccc(F)cc1)N(C)C1CCOCC1` [Example 27, (S)-4-Methyl-2-[methyl-(tetrahydro-pyran-4-yl)-amino]-pentanoic acid [4,4-bis-(4-fluoro-phenyl)-butyl]-amide monohydrochloride], the IC50 in assay [2] is 1.2 µM; in assay [1], 0.45 µM.

Turning to `CC(C)C[C@@H](NC(=O)N1CCCCCC1)C(=O)N1CCN(C(c2ccc(F)cc2)c2ccc(F)cc2)CC1` [Example 34, (R)-Azepane-1-carboxylic acid {1-(4-[bis-(4-fluoro-phenyl)-methyl]-piperazine-1-carbonyl}-3-methyl-butyl)-amide], the IC50 in assay [2] was 1.89 µM; in assay [1] it was 0.63 µM.

Take `CC(C)C[C@@H](CN1CCN(C(c2ccc(F)cc2)c2ccc(F)cc2)CC1)NC(=O)OC(C)(C)C` [Example 35, (S)-(1-{4-[Bis-(4-fluoro-phenyl)-methyl]-piperazin-1-ylmethyl}-3-methyl-butyl)-carbamic acid tert-butyl ester]: the IC50 in assay [2] was 0.5 µM; in assay [1], 0.36 µM.

Take `CC(C)C[C@@H](C(=O)N1CCN(C(c2ccc(F)cc2)c2ccc(F)cc2)CC1)N1CCCCC1` [Example 37, (S)-1-{4-[Bis-(4-fluoro-phenyl)-methyl]-piperazin-1-yl}-4-methyl-2-piperidin-1-yl-pentan-1-one]: the IC50 is 2 µM in assay [2] and 1.4 µM in assay [1].

As to `CC(C)C[C@H](NC(C)C)C(=O)N1CCN(C(c2ccc(F)cc2)c2ccc(F)cc2)CC1` [Example 49, (S)-1-{4-[Bis-(4-fluoro-phenyl)-methyl]-piperazin-1-yl}-2-isopropylamino-4-methyl-pentan-1-one monohydrochloride], the figures for the IC50 in assay [2] and in assay [1] were 3.2 µM and 1 µM, respectively.

Regarding `CC(C)C[C@H](NCc1ccccc1)C(=O)N1CCN(C(c2ccc(F)cc2)c2ccc(F)cc2)CC1` [Example 62, (S)-2-Benzylamino-1-{4-[bis-(4-fluoro-phenyl)-methyl]-piperazin-1-yl}-4-methyl-pentan-1-one], in assay [2], the inhibition at 10 µM is 99%. Also, the IC50 in assay [1] turned out to be 0.42 µM.

`CC(C)C[C@H](NC1CCOCC1)C(=O)N1CCN(C(c2ccc(F)cc2)c2ccc(F)cc2)CC1` [Example 63, (S)-1-{4-[Bis-(4-fluoro-phenyl)-methyl]-piperazin-1-yl}-4-methyl-2-(tetrahydro-pyran-4-ylamino)-pentan-1-one]: the IC50 in assay [1] worked out at 1.1 µM.

As for `CC(C)N[C@H](C(=O)NCCCC(c1ccc(F)cc1)c1ccc(F)cc1)C(C)C` [Example 65, (S)-N-[4,4-Bis-(4-fluoro-phenyl)-butyl]-2-isopropylamino-3-methyl-butyramide], in assay [2], the inhibition at 10 µM is 83%. Besides, the IC50 in assay [1] stood at 0.68 µM.

Turning to `CCC(C)N[C@H](C(=O)NCCCC(c1ccc(F)cc1)c1ccc(F)cc1)C(C)C` (stereo partly drawn) [Example 66, (S)-N-[4,4-Bis-(4-fluoro-phenyl)-butyl]-2-sec-butylamino-3-methyl-butyramide], in assay [2], the inhibition at 1 µM was found to be 34% and the inhibition at 10 µM stood at 94%. Further, the IC50 in assay [1] is 0.51 µM.

Regarding `CC(C)C[C@@H](C(=O)NCCCC(c1ccc(F)cc1)c1ccc(F)cc1)N(C)C(C)C` [Example 68, (S)-2-(Isopropyl-methyl-amino)-4-methyl-pentanoic acid [4,4-bis-(4-fluoro-phenyl)-butyl]-amide], the inhibition at 10 µM in assay [2] stood at 97%. In addition, the IC50 in assay [1] was 0.53 µM.
